{"source": "paper doi:10.1101/318345v1", "about": "“Three enzymes and one substrate; regulation of flux through the glyoxylate shunt in the opportunistic pathogen, Pseudomonas aeruginosa” (biorxiv, 2018)", "key": {"ICL": {"target": "T1, ICL (Pseudomonas aeruginosa, UniProt Q9I0K4)", "T1 construct": "gene PA2634; full length, 531 residues, 59 kDa; His6-MBP fusion from E. coli DH5alpha, tag cleaved with Factor Xa; tetramer", "T1 sequence (Q9I0K4 1-531)": "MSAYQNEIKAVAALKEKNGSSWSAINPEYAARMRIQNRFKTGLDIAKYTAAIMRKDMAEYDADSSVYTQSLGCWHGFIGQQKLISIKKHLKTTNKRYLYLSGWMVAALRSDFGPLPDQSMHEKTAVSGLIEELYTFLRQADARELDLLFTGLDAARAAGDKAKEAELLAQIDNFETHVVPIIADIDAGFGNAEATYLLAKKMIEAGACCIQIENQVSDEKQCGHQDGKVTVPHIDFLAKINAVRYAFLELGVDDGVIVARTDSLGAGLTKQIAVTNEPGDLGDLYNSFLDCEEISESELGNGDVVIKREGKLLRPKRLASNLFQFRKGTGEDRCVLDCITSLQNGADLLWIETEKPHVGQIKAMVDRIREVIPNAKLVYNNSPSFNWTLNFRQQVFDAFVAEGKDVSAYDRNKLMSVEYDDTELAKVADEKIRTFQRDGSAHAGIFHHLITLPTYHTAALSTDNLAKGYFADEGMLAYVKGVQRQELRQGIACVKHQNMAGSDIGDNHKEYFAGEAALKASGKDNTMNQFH", "test": "ICL activity, spectrophotometric", "type": "biochemical", "settings": "for Ki': uncompetitive, inhibitor at 1 mM, 37 °C, substrate isocitrate", "source_text": "ICL activity, spectrophotometric on ICL"}, "AceKPA": {"target": "T2, AceKPA (Pseudomonas aeruginosa, UniProt Q9I3W8)", "T2 construct": "gene aceK; His6-tagged from pET-19m, tag cleaved with TEV protease", "T2 sequence (Q9I3W8 1-577)": "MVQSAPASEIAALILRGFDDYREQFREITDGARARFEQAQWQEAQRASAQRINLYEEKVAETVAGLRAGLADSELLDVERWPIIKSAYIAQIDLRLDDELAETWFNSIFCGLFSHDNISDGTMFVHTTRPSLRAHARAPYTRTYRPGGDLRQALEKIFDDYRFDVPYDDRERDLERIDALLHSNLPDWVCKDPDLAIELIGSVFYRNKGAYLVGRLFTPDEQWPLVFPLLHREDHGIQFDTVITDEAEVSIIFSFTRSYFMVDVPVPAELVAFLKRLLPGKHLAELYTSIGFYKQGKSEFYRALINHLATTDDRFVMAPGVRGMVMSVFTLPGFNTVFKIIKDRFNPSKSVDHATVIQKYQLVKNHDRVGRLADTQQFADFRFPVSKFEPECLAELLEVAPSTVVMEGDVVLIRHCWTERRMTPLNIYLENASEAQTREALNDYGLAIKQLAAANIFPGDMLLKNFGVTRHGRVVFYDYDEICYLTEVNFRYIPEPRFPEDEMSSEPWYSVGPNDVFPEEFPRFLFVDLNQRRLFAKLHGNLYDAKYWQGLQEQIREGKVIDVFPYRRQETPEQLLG", "T2 sequence (Q9I0L5 1-418 partner)": "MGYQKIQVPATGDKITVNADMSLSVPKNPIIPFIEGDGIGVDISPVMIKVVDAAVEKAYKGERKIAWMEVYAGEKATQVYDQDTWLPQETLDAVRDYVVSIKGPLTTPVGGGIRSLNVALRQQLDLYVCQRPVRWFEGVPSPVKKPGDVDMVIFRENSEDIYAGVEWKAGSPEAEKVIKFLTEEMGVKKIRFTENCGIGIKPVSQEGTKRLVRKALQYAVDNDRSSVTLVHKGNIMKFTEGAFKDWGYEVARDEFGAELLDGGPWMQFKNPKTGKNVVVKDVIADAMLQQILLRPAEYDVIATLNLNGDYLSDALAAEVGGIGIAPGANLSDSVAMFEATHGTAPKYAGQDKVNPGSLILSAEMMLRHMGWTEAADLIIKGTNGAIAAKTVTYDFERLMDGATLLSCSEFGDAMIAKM", "test": "AceK phosphatase coupled to ICD reactivation", "type": "biochemical", "settings": "activator of phosphatase at 5 mM; ICD from P. aeruginosa as protein substrate; 1 mM ATP, 2 mM MgCl2, pH 7.0, 37 °C"}, "IDH [1]": {"target": "T3, IDH (Pseudomonas aeruginosa, UniProt Q9I0L4)", "T3 construct": "full length, 82 kDa; His6-MBP fusion from E. coli DH5alpha, tag cleaved with Factor Xa", "T3 sequence (Q9I0L4 1-741)": "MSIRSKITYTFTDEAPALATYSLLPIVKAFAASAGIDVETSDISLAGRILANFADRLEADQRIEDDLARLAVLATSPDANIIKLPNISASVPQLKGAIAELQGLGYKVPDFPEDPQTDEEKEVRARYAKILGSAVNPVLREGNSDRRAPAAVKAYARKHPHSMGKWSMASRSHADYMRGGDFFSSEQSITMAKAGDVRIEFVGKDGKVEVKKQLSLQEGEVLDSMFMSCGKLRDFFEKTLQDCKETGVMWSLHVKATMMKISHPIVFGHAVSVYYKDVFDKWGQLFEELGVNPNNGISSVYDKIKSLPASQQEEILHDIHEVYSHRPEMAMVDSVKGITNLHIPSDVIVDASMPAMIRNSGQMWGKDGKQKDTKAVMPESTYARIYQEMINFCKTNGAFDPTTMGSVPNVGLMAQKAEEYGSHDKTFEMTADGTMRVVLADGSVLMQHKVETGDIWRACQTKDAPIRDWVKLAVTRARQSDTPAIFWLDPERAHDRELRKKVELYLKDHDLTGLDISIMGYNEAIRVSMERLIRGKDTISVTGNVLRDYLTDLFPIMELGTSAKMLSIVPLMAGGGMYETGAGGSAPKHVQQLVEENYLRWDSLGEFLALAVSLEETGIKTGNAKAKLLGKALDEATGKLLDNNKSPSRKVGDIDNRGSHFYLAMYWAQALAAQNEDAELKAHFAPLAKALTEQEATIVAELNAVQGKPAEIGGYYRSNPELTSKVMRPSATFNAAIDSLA", "test": "isocitrate dehydrogenase activity, NADPH at […] nm", "type": "biochemical", "settings": "activator at 1 mM, V-type allosteric; 5 mM MgCl2, pH 7.5, 37 °C"}, "ICD": {"target": "T4, ICD (Pseudomonas aeruginosa, UniProt Q9I0L5)", "T4 construct": "full length, 45 kDa; His6-MBP fusion from E. coli DH5alpha, tag cleaved with Factor Xa; dimer", "T4 sequence (Q9I0L5 1-418)": "T2 sequence (Q9I0L5 1-418 partner)", "test": "isocitrate dehydrogenase activity, NADPH at […] nm", "type": "biochemical"}, "IDH [2]": {"target": "T3, IDH", "test": "X-ray crystal structure, […] Å", "type": "binding", "settings": "chain A, with NADP"}, "[3]": {"settings": "text b11 prints a different value (0.6 mM)"}}, "note": "pKi: −log10 of the molar value."}
{"compound": "O=C(O)CC(O)(CC(=O)O)C(=O)O", "note": "[citrate]", "values": [{"measurement": "pKi", "setting": "ICL", "result": 1.80}]}
{"compound": "CC(C)(COP(=O)(O)OP(=O)(O)OC[C@H]1O[C@@H](n2cnc3c(N)ncnc32)[C@H](O)[C@@H]1OP(=O)(O)O)[C@@H](O)C(=O)NCCC(=O)NCCS", "note": "[coenzyme A]", "values": [{"measurement": "pKi", "setting": "ICL", "result": 2.41}]}
{"compound": "O=C(O)/C=C/C(=O)O", "note": "[fumarate]", "values": [{"measurement": "AceK phosphatase coupled to ICD reactivation", "setting": "AceKPA", "result": "fumarate was the most potent activator of the phosphatase in AceKPA"}]}
{"compound": "O=C(O)CO", "note": "[glycolic acid]", "values": [{"measurement": "pKi", "setting": "ICL", "result": 2.74}]}
{"compound": "C=C(CC(=O)O)C(=O)O", "note": "[itaconic acid]", "values": [{"measurement": "Ki'", "setting": "ICL; text b11 prints a different value (0.5 mM)", "result": 900, "unit": "µM"}]}
{"compound": "O=C(O)C[C@H](O)C(=O)O", "note": "[malic acid]", "values": [{"measurement": "pKi", "setting": "ICL", "result": 2.36}]}
{"compound": "O=C(O)CC(=O)O", "note": "[malonic acid]", "values": [{"measurement": "Ki'", "setting": "ICL", "result": 2900, "unit": "µM"}]}
{"compound": "O=C(O)CC[N+](=O)[O-]", "note": "[nitropropionic acid]", "values": [{"measurement": "Ki'", "setting": "ICL; [3]", "result": 1000, "unit": "µM"}]}
{"compound": "O=C(O)CC(=O)C(=O)O", "note": "[oxaloacetate]", "values": [{"measurement": "pKi", "setting": "ICL", "result": 2.85}]}
{"compound": "CC(=O)C(=O)O", "note": "[pyruvate]", "values": [{"measurement": "pKi", "setting": "ICL", "result": 2.77}, {"measurement": "isocitrate dehydrogenase activity, NADPH at 340 nm", "setting": "IDH [1]", "result": "pyruvate and oxaloacetate were far more potent regulators"}]}
{"compound": "O=C(O)CCC(=O)O", "note": "[succinate]", "values": [{"measurement": "Ki'", "setting": "ICL; [3]", "result": 900, "unit": "µM"}]}
{"compound": "O=C(O)CCC(=O)C(=O)O", "note": "[α-ketoglutarate]", "values": [{"measurement": "pKi", "setting": "ICD", "result": 3.18}, {"measurement": "X-ray crystal structure, 2.7 Å", "setting": "IDH [2]", "result": "(designated chain A) contained bound α-ketoglutarate and NADP"}]}
